One block for each compound: values may come before it. Where no end group is shown, it is not given here. [ ]: non-standard residue; d: D form. d2Nal = N[C@H](Cc1ccc2ccccc2c1)C(=O)O
How the values were obtained:
[1] = molecular target: T1, XIAP-inhibited caspase-3 (Homo sapiens, UniProt P98170); experiment: IAP derepression assay: Ac-DEVD-AFC hydrolysis by caspase-3 in the presence of GST-XIAP; type: biochemical
T1 construct: in a caspase derepression assay using full length XIAP; made in house; host or cells: bacteria
T1 sequence (P98170 whole entry): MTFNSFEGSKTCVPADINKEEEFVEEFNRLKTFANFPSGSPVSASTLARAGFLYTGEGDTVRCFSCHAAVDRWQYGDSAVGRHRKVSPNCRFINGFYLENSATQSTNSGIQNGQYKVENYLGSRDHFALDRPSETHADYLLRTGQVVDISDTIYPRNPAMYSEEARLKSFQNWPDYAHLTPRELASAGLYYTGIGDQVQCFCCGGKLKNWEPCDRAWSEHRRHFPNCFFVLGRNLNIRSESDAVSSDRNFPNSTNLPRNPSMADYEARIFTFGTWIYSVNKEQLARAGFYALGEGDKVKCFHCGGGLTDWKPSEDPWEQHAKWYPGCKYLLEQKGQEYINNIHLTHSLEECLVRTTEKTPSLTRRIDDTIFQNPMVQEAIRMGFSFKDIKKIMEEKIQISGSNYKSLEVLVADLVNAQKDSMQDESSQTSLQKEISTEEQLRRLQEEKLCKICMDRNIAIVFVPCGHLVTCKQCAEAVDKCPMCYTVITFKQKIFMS
Method: The ratio of Vmax for hydrolysis of Ac-DEVD-AFC in the presence and absence of the candidate mixture was calculated and used to identify those that contain an agent that derepresses an IAP-inhibited caspase.
(§1) Each mixture was aliquoted in a 25 microliter volume and in duplicate to a well of a 96 well microtiter plate. […] Fluorescence of liberated AFC was immediately detected from each well for 30 minutes at 30 second intervals. The Vmax for hydrolysis of AC-DEVD-AFC from each well was measured using the softmax software package.

[2] = tested on: Jurkat leukemia cells; experiment: Jurkat leukemia cell death, Annexin V/propidium iodide flow cytometry; type: cell-based; conditions: Homo sapiens, Jurkat, 20 h, 20 hours, read-out: % nonviable cells
Method: (§2) The following assay was used to test the ability of individual compounds from the TPI 1396 and TPI 1391 libraries to induce apoptosis of cultured tumor cell lines. Each of the compounds listed in Table IX was individually added to Jurkat leukemia cells (6.25×10^5 cells/mL) in RPMI containing 2.5% FBS at various concentrations for 20 hours. After incubation, cells were washed and stained with FITC-conjugated Annexin V antibody and propidium iodide (Biovision; Mountain View, Calif.). Cells were incubated for 20 minutes at room temperature in the dark and fluorescence was measured by flow cytometry (FACScan, Immunocytometry system; Becton-Dickinson; San Jose, Calif.). Cells staining positive for Annexin V were deemed non-viable.
(§3) The TPI I396-34 and TPI 1391-28 compounds were further tested as set forth below.

[3] = tested on: caspase-3 and caspase-7 activity in Jurkat cells; experiment: Caspase-3 and caspase-7 activity in whole Jurkat cells, cell permeable substrate; type: cell-based; conditions: 8 μM, 20 hours
[4] = tested on: NCI panel of 60 tumor cell lines; experiment: NCI panel of 60 tumor cell lines, 48 hours, protein-based colorimetric assay; set-up: species or system human
Method: Selected polyphenylurea compounds were tested on the National Cancer Institute (NCI) panel of 60 tumor cell lines (see FIG. 28a and FIG. 29).

[5] = tested on: chronic lymphocytic leukemia (CLL) B-cells; experiment: Freshly isolated CLL B-cells from patients, annexin-V/propidium iodide; type: cell-based, human; conditions: 20-24 hours
Description: (§4) Since many tumor and leukemia cell lines proliferate faster than normal cells, it was investigated whether the polyphenylurea compounds could induce apoptosis of non-replicating malignant cells. […] Thus, cell replication is not required for sensitivity to the disclosed poly-phenylurea compounds.

[6] = tested on: acute myelogenous leukemia (AML) blasts; experiment: Freshly isolated AML leukemic blasts from patients, annexin-V; type: cell-based, human; conditions: 20-24 hours
Description: as §4

[7] = molecular target: full length XIAP (Homo sapiens, UniProt P98170); experiment: Potency of IAP antagonists in vitro (Table VIII; caspase derepression / SMAC competition with full length XIAP)
Chain of full length XIAP (P98170 whole entry): as above

[8] = tested on: mouse embryo fibroblasts (MEFs) from XIAP -/- mice; experiment: Mouse embryo fibroblasts from XIAP -/- and wild type mice, MTT assay; type: cell-based; conditions: non-transformed versus SV40 large T transformed MEFs
Method: Cells were either tested directly at low passage (FIGS. 38A and C) or after transformation by infection with a retrovirus encoding SV40 large T antigen (FIGS. 38B and D). […] Cell viability was measured by MTT assay, expressing data as a percentage relative to control, untreated cells. Data shown in FIG. 38A-D represent mean±standard deviation of triplicate determinations.

[9] = tested on: Smac-7 mer/XIAP-BIR2; experiment: Competition assay Smac-7 mer/XIAP-BIR2 IC-50 uM | AVG
[10] = molecular target: T2, caspase-3 (Homo sapiens, UniProt P42574); experiment: Caspase assay without XIAP (candidate mixture and caspase 3 only); type: biochemical; conditions: TPI 1239 library, absence of XIAP
T2 construct: made in house; host or cells: bacteria
T2 sequence (P42574 29-175 limits assumed): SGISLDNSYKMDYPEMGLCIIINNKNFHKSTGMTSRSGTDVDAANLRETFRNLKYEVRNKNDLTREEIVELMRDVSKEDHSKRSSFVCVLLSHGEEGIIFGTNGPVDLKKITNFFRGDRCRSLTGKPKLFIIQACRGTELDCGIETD
T2 sequence (P42574 176-277 limits assumed): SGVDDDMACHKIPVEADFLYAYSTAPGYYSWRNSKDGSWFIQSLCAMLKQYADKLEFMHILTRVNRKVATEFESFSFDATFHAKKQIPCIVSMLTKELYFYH
Method: Caspase activity was assayed by release of 7-amino-4-trifluoromethyl-coumarin (AFC) from Ac-DEVD-AFC synthetic peptides using a Molecular Devices Spectromax 340 (see Zhou et al., J. Biol. Chem. 272:7797-7800 (1997)). […] The ratio of Vmax for hydrolysis of Ac-DEVD-AFC in the presence and absence of the candidate mixture was calculated and used to identify those that contain an agent that derepresses an IAP-inhibited caspase.
as §1, with “Screening of each mixture from the DCR390, TPI 1239 or TPI 1328 library, respectively, using the above described assay was carried out as follows. Each” for “Each”
Results of the screen for the DCR390 library are shown in Table I. Sets of mixtures having the same position fixed with different respective amino acids are arranged in 6 sections identified with the position number. […] The mixtures in each section are arranged in descending order according to apparent velocity in the second column.

[11] = Jurkat leukemia cell death, Annexin V/propidium iodide flow cytometry; type: cell-based; conditions: human, 20 hours, read-out: % nonviable cells
Method: as §2, §3

[12] = molecular target: BIR3RING (XIAP fragment) (human) (UniProt P98170); experiment: fluorescence polarization; 20 nM rhodamine-SMAC, BIR3RING titrated
Chain of BIR3RING (XIAP fragment) (human) (P98170 243-497 limits assumed): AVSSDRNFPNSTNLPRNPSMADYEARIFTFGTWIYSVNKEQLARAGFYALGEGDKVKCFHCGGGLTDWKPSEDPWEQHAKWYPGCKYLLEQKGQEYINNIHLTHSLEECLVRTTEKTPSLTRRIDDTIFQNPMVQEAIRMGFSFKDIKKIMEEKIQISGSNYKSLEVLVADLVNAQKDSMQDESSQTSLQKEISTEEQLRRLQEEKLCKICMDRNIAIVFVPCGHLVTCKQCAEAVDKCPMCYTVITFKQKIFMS

[13] = molecular target: GST-BIR2 (glutathione-S-transferase-BIR2 fusion protein of XIAP) (human) (UniProt P98170); experiment: fluorescence polarization; 20 nM rhodamine-SMAC, GST-BIR2 0 to 495 nM
Chain of GST-BIR2 (glutathione-S-transferase-BIR2 fusion protein of XIAP) (human) (P98170 124-240): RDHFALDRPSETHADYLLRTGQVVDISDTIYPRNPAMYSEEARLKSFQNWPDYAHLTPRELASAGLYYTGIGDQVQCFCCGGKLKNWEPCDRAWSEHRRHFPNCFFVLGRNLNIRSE

Compound: CCCC[C@@H](CN(C(=O)Nc1ccccc1)[C@@H](CNC(=O)Nc1ccccc1)CC1CCCCC1)N(CCc1ccc(O)cc1)C(=O)Nc1ccccc1 [TPI 1396-28]
Activity* (relative caspase-3 activity: Vmax in the presence of compound / Vmax of controls having caspase-3 and XIAP) ([1]; XIAP derepression assay): 1.3 | activity in the caspase derepression assay using full length XIAP ([1]; in words): inactive analog | cytotoxicity at 1 µM ([2]; 1 μM): 13% | cytotoxicity at 10 µM ([2]; 10 μM): 13% | cytotoxicity at 25 µM ([2]; 25 μM): 14% | cytotoxicity at 50 µM ([2]; 50 μM): 13% | caspase activation in whole cells [3]: did not induce caspase activation | average (mean) LD50 for the 60 cell lines [4]: > 70 µM | apoptosis induction [5]: did not induce apoptosis | apoptosis induction [6]: did not induce apoptosis | EC50 [7]: > 134 µM

Compound: COc1cccc2c1C(=O)c1c(O)c3c(c(O)c1C2=O)C[C@@](O)(C(C)=O)C[C@@H]3O[C@H]1C[C@H](N)[C@H](O)[C@H](C)O1 [daunorubicin]
selectivity for transformed cells [8]: do not display selectivity for transformed cells

IC50 [9]: 5 ± 4.8 µM
Compound: (D-Trp)-(D-Trp)-(L-Trp)-(D-Nal) ([dW][dW]W[d2Nal]) [TPI 1332-24]

Compound: H-AVPIAQK-NH2 [SMAC, H-Ala-Val-Pro-Ile-Ala-Gln-Lys-NH2, reference compound]
Vmax(mix + casp3 + XIAP) / Vmax(casp3 + XIAP) ([1]; TPI 1239 library): 3.8 ± 1.7 | Vmax(mix + casp3) / Vmax(casp3) [10]: 0.8 ± 0.0 | cytotoxicity at 20 hours, 5 µM ([11]; 5 μM): 12% | cytotoxicity at 20 hours, 25 µM ([11]; 25 μM): 16% | cytotoxicity at 20 hours, 50 µM ([11]; 50 μM): ~16% | cytotoxicity at 20 hours, 100 µM ([11]; 100 μM): 15%

Kd [12]: 0.08 µM | Kd [13]: 0.1 µM
Compound: rhodamine labeled SMAC (rhodamine-SMAC) (peptide)
